Measurements published in the supplement of paper PMC10307832.

Tests used:
Test in all cases: relative viability (nuclei count vs DMSO), 5 days (fraction); higher = more cells survive
Daporinad + Foretinib = compound: O=C(/C=C/c1cccnc1)NCCCCC1CCN(C(=O)c2ccccc2)CC1 [Daporinad] + COc1cc2c(Oc3ccc(NC(=O)C4(C(=O)Nc5ccc(F)cc5)CC4)cc3F)ccnc2cc1OCCCN1CCOCC1 [Foretinib] (partner 0.25 µM)
In short: (§1)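 Lung cancer cell lines in 1536-well plates got either a single drug or a fixed anchor-drug dose together with five library-drug doses (not always all listed) in √10 steps, by pin tool, on the day after seeding. Nuclei were counted after 5 days, and relative viability is the treated-to-vehicle ratio of nuclei counts. Values are medians of duplicate plates.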

R406 + Tozasertib = compound: COc1cc(Nc2ncc(F)c(Nc3ccc4c(n3)NC(=O)C(C)(C)O4)n2)cc(OC)c1OC [R406] + Cc1cc(Nc2cc(N3CCN(C)CC3)nc(Sc3ccc(NC(=O)C4CC4)cc3)n2)n[nH]1 [Tozasertib] (partner 0.1 µM)
In short: as §1

Daporinad + Alpelisib = compound: O=C(/C=C/c1cccnc1)NCCCCC1CCN(C(=O)c2ccccc2)CC1 [Daporinad] + Cc1nc(NC(=O)N2CCC[C@H]2C(N)=O)sc1-c1ccnc(C(C)(C)C(F)(F)F)c1 [Alpelisib] (partner 2 µM)
In short: as §1

R406 + Linsitinib = compound: COc1cc(Nc2ncc(F)c(Nc3ccc4c(n3)NC(=O)C(C)(C)O4)n2)cc(OC)c1OC [R406] + C[C@]1(O)C[C@@H](c2nc(-c3ccc4ccc(-c5ccccc5)nc4c3)c3c(N)nccn32)C1 [Linsitinib] (partner 1 µM)
In short: as §1

With UMC-11 the relative viability (Daporinad + Foretinib; first compound 0.0005 µM) was 1.11, the relative viability (Daporinad + Foretinib; first compound 0.001581 µM) was 1.05 and the relative viability (Daporinad + Foretinib; first compound 0.005 µM) was 1.34. The relative viability (Daporinad + Foretinib; first compound 0.01581 µM) was 1.22, the relative viability (R406 + Tozasertib; first compound 0.08 µM) was 0.203 and the relative viability (R406 + Tozasertib; first compound 0.253 µM) was 0.207. For the same cell line, the relative viability (R406 + Tozasertib; first compound 0.8 µM) was 0.205, the relative viability (R406 + Tozasertib; first compound 2.53 µM) was 0.25 and the relative viability (R406 + Tozasertib; first compound 8 µM) was 0.185. The relative viability (Daporinad + Alpelisib; first compound 0.0005 µM) was 0.915, the relative viability (Daporinad + Alpelisib; first compound 0.001581 µM) was 0.979 and the relative viability (Daporinad + Alpelisib; first compound 0.005 µM) was 1.07. It also gave a relative viability (Daporinad + Alpelisib; first compound 0.01581 µM) of 1.1, a relative viability (R406 + Linsitinib; first compound 0.08 µM) of 1.1 and a relative viability (R406 + Linsitinib; first compound 0.253 µM) of 1.1. For the same cell line, the relative viability (R406 + Linsitinib; first compound 0.8 µM) was 1.16, the relative viability (R406 + Linsitinib; first compound 2.53 µM) was 0.935 and the relative viability (R406 + Linsitinib; first compound 8 µM) was 0.474.
